According to ChEMBL document CHEMBL5584231, “Rational design of a new short anticancer peptide with good potential for cancer treatment” (Eur J Med Chem, 2024):
Non-standard residues stand in square brackets, D forms with d. Residues, ends and D or L forms follow the SMILES beside them. Dip = N[C@H](C(=O)O)C(c1ccccc1)c1ccccc1; Asu = N[C@@H](CCCCCC(=O)O)C(=O)O

Legend:
[1] = Cytotoxicity against HK-2 cells assessed as inhibition of cell growth incubated for 1 hr by MTT assay; assay type: toxicity, cell-based; conditions: human
[2] = Therapeutic index, ratio of HC10 for mouse RBC to IC50 for cytotoxicity against human HeLa cells; assay type: toxicity, cell-based; conditions: mouse RBC and HeLa cells, read-out: TI
[3] = Therapeutic index, ratio of HC10 for mouse RBC to IC50 for cytotoxicity against human A549 cells; assay type: toxicity, cell-based; conditions: mouse RBC and A549 cells, read-out: TI
[4] = Therapeutic index, ratio of HC10 for mouse RBC to IC50 for cytotoxicity against RG cells (unknown origin); assay type: toxicity, cell-based; conditions: mouse RBC and RG cells, read-out: TI
[5] = Cytotoxicity against RG cells (unknown origin) assessed as inhibition of cell growth incubated for 1 hr by MTT assay; assay type: functional, cell-based
[6] = system: A549; assay: Cytotoxicity against human A549 cells assessed as inhibition of cell growth incubated for 1 hr by MTT assay; assay type: functional, cell-based; conditions: A549, 1 h
[7] = system: MCF7; assay: Cytotoxicity against human MCF7 cells assessed as inhibition of cell growth incubated for 1 hr by MTT assay; assay type: functional, cell-based; conditions: MCF7, 1 h
[8] = Therapeutic index, ratio of HC10 for mouse RBC to IC50 for cytotoxicity against human MCF7 cells; assay type: toxicity, cell-based; conditions: mouse RBC and MCF7 cells, read-out: TI
[9] = system: HeLa; assay: Cytotoxicity against human HeLa cells assessed as inhibition of cell growth incubated for 1 hr by MTT assay; assay type: functional, cell-based

| SMILES | IC50 at 1 h [1] | selectivity ratio [2] | selectivity ratio [3] | selectivity ratio [4] | IC50 [5] | IC50 [6] | IC50 [7] | selectivity ratio [8] | IC50 [9] |
| --- | --- | --- | --- | --- | --- | --- | --- | --- | --- |
| CC(C)C[C@H](NC(=O)[C@H](CCCCN)NC(=O)[C@H](CCCCN)NC(=O)[C@H](CC(C)C)NC(=O)[C@H](CC(C)C)NC(=O)[C@H](CCCCN)NC(=O)[C@H](CCCCN)NC(=O)[C@H](CC(C)C)NC(=O)[C@H](CC(C)C)NC(=O)[C@H](CCCCN)NC(=O)[C@H](CCCCN)NC(=O)[C@H](CC(C)C)NC(=O)[C@@H](N)CC(C)C)C(=O)N[C@@H](CCCCCC(=O)O)C(N)=O (H-LLKKLLKKLLKKL[Asu]-NH2) | 15.3 µM | 15.4 | 13.5 | 6.3 | 12.8 µM | 5.97 µM | 8.55 µM | 9.43 | 5.23 µM |
| NCCCC[C@H](NC(=O)[C@@H](NC(=O)[C@H](Cc1c[nH]c2ccccc12)NC(=O)[C@H](CCCCN)NC(=O)[C@H](CCCCN)NC(=O)[C@H](Cc1c[nH]c2ccccc12)NC(=O)[C@H](Cc1c[nH]c2ccccc12)NC(=O)[C@H](CCCCN)NC(=O)[C@@H](N)CCCCN)C(c1ccccc1)c1ccccc1)C(N)=O [RUXOTEMITIDE] (H-KKWWKKW[Dip]K-NH2) | 78.4 µM | 10.6 | 2.43 | 3.6 | 43.2 µM | 64.1 µM | 63.5 µM | 2.45 | 14.7 µM |
| CC(C)C[C@H](NC(=O)[C@H](CC(C)C)NC(=O)[C@H](CCC(=O)O)NC(=O)[C@H](CCCCN)NC(=O)[C@H](CC(C)C)NC(=O)[C@H](CC(C)C)NC(=O)[C@H](CCCCN)NC(=O)[C@H](CCCCN)NC(=O)[C@H](CC(C)C)NC(=O)[C@H](CC(C)C)NC(=O)[C@H](CCCCN)NC(=O)[C@H](CCCCN)NC(=O)[C@H](CC(C)C)NC(=O)[C@@H](N)CC(C)C)C(N)=O (H-LLKKLLKKLLKELL-NH2) | 10.8 µM | 0.352 | 0.474 | 0.838 | 6.16 µM | 10.9 µM | 11.8 µM | 0.438 | 14.7 µM |
| CC(C)C[C@H](NC(=O)[C@H](CC(C)C)NC(=O)[C@H](CCCCN)NC(=O)[C@H](CCCCN)NC(=O)[C@H](CC(C)C)NC(=O)[C@H](CC(C)C)NC(=O)[C@H](CCCCN)NC(=O)[C@H](CCCCN)NC(=O)[C@H](CC(C)C)NC(=O)[C@H](CC(C)C)NC(=O)[C@H](CCC(=O)O)NC(=O)[C@H](CCCCN)NC(=O)[C@H](CC(C)C)NC(=O)[C@@H](N)CC(C)C)C(N)=O (H-LLKELLKKLLKKLL-NH2) | 21.4 µM | 1.78 | 0.966 | 1.26 | 18.2 µM | 23.8 µM | 18.5 µM | 1.24 | 12.9 µM |
| CC(C)C[C@H](NC(=O)[C@H](CC(C)C)NC(=O)[C@H](CCCCN)NC(=O)[C@H](CCCCN)NC(=O)[C@H](CC(C)C)NC(=O)[C@H](CC(C)C)NC(=O)[C@H](CCCCN)NC(=O)[C@H](CCCCN)NC(=O)[C@H](CC(C)C)NC(=O)[C@H](CC(C)C)NC(=O)[C@H](CCCCN)NC(=O)[C@H](CC(C)C)NC(=O)[C@H](CC(C)C)NC(=O)[C@@H](N)CCCCN)C(N)=O (H-KLLKLLKKLLKKLL-NH2) | 28.1 µM | 0.629 | 0.486 | 0.219 | 34.3 µM | 15.4 µM | 58.4 µM | 0.129 | 11.9 µM |
| CC(C)C[C@H](NC(=O)[C@H](CCCCN)NC(=O)[C@H](CC(C)C)NC(=O)[C@H](CC(C)C)NC(=O)[C@H](CCCCN)NC(=O)[C@H](CCCCN)NC(=O)[C@H](CC(C)C)NC(=O)[C@H](CC(C)C)NC(=O)[C@H](CCCCN)NC(=O)[C@H](CCCCN)NC(=O)[C@H](CC(C)C)NC(=O)[C@H](CC(C)C)NC(=O)[C@@H](N)CCCCN)C(N)=O (H-KLLKKLLKKLLKL-NH2) | 9.65 µM | 6.79 | 6.09 | 4.98 | 11.1 µM | 9.08 µM | 10.5 µM | 5.27 | 8.14 µM |
| CC(C)C[C@H](NC(=O)[C@H](CC(C)C)NC(=O)[C@H](CCCCN)NC(=O)[C@H](CCCCN)NC(=O)[C@H](CC(C)C)NC(=O)[C@H](CC(C)C)NC(=O)[C@H](CCCCN)NC(=O)[C@H](CCCCN)NC(=O)[C@H](CC(C)C)NC(=O)[C@H](CC(C)C)NC(=O)[C@H](CCCCN)NC(=O)[C@H](CCC(=O)O)NC(=O)[C@H](CC(C)C)NC(=O)[C@@H](N)CC(C)C)C(N)=O (H-LLEKLLKKLLKKLL-NH2) | 11 µM | 0.883 | 0.767 | 0.563 | 11.1 µM | 8.11 µM | 10.5 µM | 0.595 | 7.05 µM |
| CC(C)C[C@H](NC(=O)[C@H](CCC(=O)O)NC(=O)[C@H](CCCCN)NC(=O)[C@H](CCCCN)NC(=O)[C@H](CC(C)C)NC(=O)[C@H](CC(C)C)NC(=O)[C@H](CCCCN)NC(=O)[C@H](CCCCN)NC(=O)[C@H](CC(C)C)NC(=O)[C@H](CC(C)C)NC(=O)[C@H](CCCCN)NC(=O)[C@H](CCCCN)NC(=O)[C@H](CC(C)C)NC(=O)[C@@H](N)CC(C)C)C(N)=O (H-LLKKLLKKLLKKEL-NH2) | 73 µM | 13.7 | 5.86 | 5.81 | 75.9 µM | 75.3 µM | 101 µM | 4.38 | 32.2 µM |
| CC(C)C[C@H](NC(=O)[C@H](CC(C)C)NC(=O)[C@H](CCCCN)NC(=O)[C@H](CCCCN)NC(=O)[C@H](CC(C)C)NC(=O)[C@H](CC(C)C)NC(=O)[C@H](CCC(=O)O)NC(=O)[C@H](CCCCN)NC(=O)[C@H](CC(C)C)NC(=O)[C@H](CC(C)C)NC(=O)[C@H](CCCCN)NC(=O)[C@H](CCCCN)NC(=O)[C@H](CC(C)C)NC(=O)[C@@H](N)CC(C)C)C(N)=O (H-LLKKLLKELLKKLL-NH2) | 3.8 µM | 1.15 | 1.39 | 1.1 | 4.74 µM | 3.75 µM | 3.95 µM | 1.32 | 4.54 µM |
| CC(C)C[C@H](NC(=O)[C@H](CC(C)C)NC(=O)[C@H](CCCCN)NC(=O)[C@H](CCCCN)NC(=O)[C@H](CC(C)C)NC(=O)[C@H](CC(C)C)NC(=O)[C@H](CCCCN)NC(=O)[C@H](CCCCN)NC(=O)[C@H](CC(C)C)NC(=O)[C@H](CCC(=O)O)NC(=O)[C@H](CCCCN)NC(=O)[C@H](CCCCN)NC(=O)[C@H](CC(C)C)NC(=O)[C@@H](N)CC(C)C)C(N)=O (H-LLKKELKKLLKKLL-NH2) | 37.3 µM | 12 | 9.94 | 7.14 | 24.1 µM | 17.3 µM | 21.4 µM | 8.02 | 14.4 µM |
| CC(C)C[C@H](NC(=O)[C@H](CCCCN)NC(=O)[C@H](CCCCN)NC(=O)[C@H](CC(C)C)NC(=O)[C@H](CC(C)C)NC(=O)[C@H](CCCCN)NC(=O)[C@H](CCCCN)NC(=O)[C@H](CC(C)C)NC(=O)[C@H](CC(C)C)NC(=O)[C@H](CCCCN)NC(=O)[C@H](CCCCN)NC(=O)[C@H](CC(C)C)NC(=O)[C@@H](N)CC(C)C)C(=O)N[C@@H](CC(=O)O)C(N)=O (H-LLKKLLKKLLKKLD-NH2) | 50.3 µM | 31.1 | 20 | 11.4 | 32.8 µM | 18.8 µM | 30.7 µM | 12.2 | 12.1 µM |
| CC(C)C[C@H](NC(=O)[C@H](CCCCN)NC(=O)[C@H](CC(C)C)NC(=O)[C@H](CC(C)C)NC(=O)[C@H](CCCCN)NC(=O)[C@H](CCCCN)NC(=O)[C@H](CC(C)C)NC(=O)[C@H](CC(C)C)NC(=O)[C@H](CCCCN)NC(=O)[C@H](CCCCN)NC(=O)[C@H](CC(C)C)NC(=O)[C@H](CC(C)C)NC(=O)[C@H](CCCCN)NC(=O)[C@@H](N)CCCCN)C(N)=O (H-KKLLKKLLKKLLKL-NH2) | 8.91 µM | 10.3 | 9.31 | 6.72 | 12.1 µM | 8.71 µM | 12.5 µM | 6.5 | 7.85 µM |
| CC(C)C[C@H](NC(=O)[C@H](CC(C)C)NC(=O)[C@H](CCCCN)NC(=O)[C@H](CCCCN)NC(=O)[C@H](CC(C)C)NC(=O)[C@H](CC(C)C)NC(=O)[C@H](CCCCN)NC(=O)[C@H](CCCCN)NC(=O)[C@H](CCC(=O)O)NC(=O)[C@H](CC(C)C)NC(=O)[C@H](CCCCN)NC(=O)[C@H](CCCCN)NC(=O)[C@H](CC(C)C)NC(=O)[C@@H](N)CC(C)C)C(N)=O (H-LLKKLEKKLLKKLL-NH2) | 264 µM | 4.8 | 0.943 | 1.2 | 418 µM | 530 µM | 202 µM | 2.47 | 104 µM |
| CC(C)C[C@H](NC(=O)[C@H](CC(C)C)NC(=O)[C@H](CCCCN)NC(=O)[C@H](CCCCN)NC(=O)[C@H](CC(C)C)NC(=O)[C@H](CC(C)C)NC(=O)[C@H](CCCCN)NC(=O)[C@H](CCCCN)NC(=O)[C@H](CC(C)C)NC(=O)[C@H](CC(C)C)NC(=O)[C@H](CCCCN)NC(=O)[C@@H](N)CCCCN)C(=O)N[C@@H](CCCCN)C(N)=O (H-KKLLKKLLKKLLK-NH2) | 63.9 µM | 24.1 | 9.03 | 5.36 | 93.3 µM | 55.4 µM | 108 µM | 4.61 | 20.8 µM |
